Drawing on article PMC9465256, “Discovering monoacylglycerol lipase inhibitors by a combination of fluorogenic substrate assay and activity-based protein profiling” (Frontiers in Pharmacology, 2022), this text covers percent inhibition of ABHD6, percent inhibition and activity for 15 molecules.

What all share (assay type): biochemical
The target of one assay is T1, human ABHD6 (Homo sapiens, UniProt Q9BV23).
T1 construct: expressed in transfected cells; host or cells: HEK293T (transient transfection; membrane fraction)
T1 sequence (Q9BV23 1-337): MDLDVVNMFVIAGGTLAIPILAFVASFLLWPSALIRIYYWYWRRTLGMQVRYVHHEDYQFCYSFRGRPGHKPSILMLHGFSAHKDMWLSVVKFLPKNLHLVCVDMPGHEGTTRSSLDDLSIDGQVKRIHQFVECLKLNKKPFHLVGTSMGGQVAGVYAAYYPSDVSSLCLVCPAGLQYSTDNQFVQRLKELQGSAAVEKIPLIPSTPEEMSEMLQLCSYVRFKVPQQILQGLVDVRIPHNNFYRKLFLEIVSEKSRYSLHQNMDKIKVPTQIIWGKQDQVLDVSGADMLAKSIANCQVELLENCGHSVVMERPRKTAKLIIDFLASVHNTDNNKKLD
Nature of the assay: ABHD6 activity assay (AA-HNA fluorogenic substrate). The conditions noted are these: read-out: ABHD6 Inhibition (%); for activity at 100 µM / activity: AA-HNA substrate assay, Supplementary Table 2, 100 µM. The procedure:
(§1) HEK293T cells were cultured at 37°C under 5% CO2 in a DMEM medium with stable glutamine and phenolred, containing 10% fetal bovine serum (FBS, Gibco), penicillin, and streptomycin. The cells were passaged every 2–3 days by resuspension in the medium at ∼90% confluence. The membranes used in this study were prepared from transiently transfected HEK293T cells. Briefly, 1 day prior to transfection, ∼10^7 cells were seeded in 15 cm plates, and then the cells were transfected by the addition of a mixture of polyethyleneimine and plasmid DNA (3:1, 60, and 20 µg) in 2 ml of medium (without serum). Of note, the empty pcDNA3.1 vector was used in the Mock-control. After 24 h, the medium was removed and the cells were refreshed with fresh medium. After 72 h, the cells were harvested by suspending in 20 ml of medium, and the supernatant was removed by centrifugation for 10 min at 1,000 rpm. The cell pellet was flash frozen in liquid nitrogen and stored at −80°C until use. Subsequently, the cell pellets were suspended in lysis buffer (30 mM Tirs, pH 7.5, 1 mM MgCl2, 25 U/ml Benzonase), which was homogenized by sonication (3 × 10 bursts) and incubated for 30 min on ice. The membrane fractions overexpressing MAGL/ABHD6/ABHD12 were separated by ultracentrifuge (100,000 g, 30 min, 4 C). The protein concentration was determined with a Qubit protein assay (Invitrogen). The protein samples were quickly frozen in liquid nitrogen and stored at −80 C until use.
The MAGL activity assay is based on the hydrolysis of 2-arachidonoylglycerol-based fluorogenic substrate by MAGL-overexpressing membrane preparations from transiently transfected HEK293T cells. In brief, the reactions were performed in HEPES buffer (40 mM HEPES, pH 7.5, 0.1 mg/ml BSA) in black, flat bottom 96-well plates. The final protein concentration of membrane fractions from overexpressing human MAGL HEK293T cells was 12.5 μg/ml 5 µl of inhibitors were added from×40 concentrated DMSO stocks in the 96-well plate containing 145 µl assay buffer, followed by the addition of 40 µl of the protein (12.5 μg/ml). After the incubation of the inhibitor-protein complex for 30 min, 10 µl of the fluorogenic substrate (AA-HNA, 200 µM) was added and fluorescence was measured in 1 min intervals for 30 min on a plate reader (BioTek). Final assay concentrations: 12.5 μg/ml MAGL, […], and […] in the total volume of 200 µl. All the measurements were performed in N = 2, n = 2 for inhibitors and N = 2, n = 4 for controls with Z′ value ≥0.6. The slope is determined in 5–15 min for all the experiments.
The ABHD6 activity assay is based on the same principle as the MAGL activity assay described earlier, but with human ABHD6 overexpressing membrane preparations at a final protein concentration of 50 μg/ml and 200 µM AA-HNA. Other conditions are the same as those of the MAGL activity assay.

For another assay, the target named is T2, human MAGL (Homo sapiens, UniProt Q99685).
T2 construct: expressed in transfected cells; host or cells: HEK293T (transient transfection; membrane fraction)
T2 sequence (Q99685 1-303): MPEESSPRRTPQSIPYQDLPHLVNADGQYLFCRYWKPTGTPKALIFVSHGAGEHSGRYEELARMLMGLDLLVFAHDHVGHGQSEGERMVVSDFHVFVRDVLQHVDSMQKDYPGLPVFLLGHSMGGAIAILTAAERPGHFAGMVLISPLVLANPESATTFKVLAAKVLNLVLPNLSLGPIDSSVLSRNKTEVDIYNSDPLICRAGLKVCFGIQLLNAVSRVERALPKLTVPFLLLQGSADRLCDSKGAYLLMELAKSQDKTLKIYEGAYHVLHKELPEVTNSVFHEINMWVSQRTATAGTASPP
Nature of the assay: MAGL activity assay (AA-HNA fluorogenic substrate). The conditions noted are these: read-out: MAGL Inhibition (%); for activity at 100 µM / activity: AA-HNA substrate assay, Supplementary Table 1, 100 µM. The procedure:
as §1
The MAGL activity assay is based on the hydrolysis of 2-arachidonoylglycerol-based fluorogenic substrate by MAGL-overexpressing membrane preparations from transiently transfected HEK293T cells. In brief, the reactions were performed in HEPES buffer (40 mM HEPES, pH 7.5, 0.1 mg/ml BSA) in black, flat bottom 96-well plates. […] After the incubation of the inhibitor-protein complex for 30 min, 10 µl of the fluorogenic substrate (AA-HNA, 200 µM) was added and fluorescence was measured in 1 min intervals for 30 min on a plate reader (BioTek). […] All the measurements were performed in N = 2, n = 2 for inhibitors and N = 2, n = 4 for controls with Z′ value ≥0.6. The slope is determined in 5–15 min for all the experiments.

A further assay deals with T3, human ABHD12 (Homo sapiens, UniProt Q8N2K0).
T3 construct: expressed in transfected cells; host or cells: HEK293T (transient transfection; membrane fraction)
T3 sequence (Q8N2K0 1-398): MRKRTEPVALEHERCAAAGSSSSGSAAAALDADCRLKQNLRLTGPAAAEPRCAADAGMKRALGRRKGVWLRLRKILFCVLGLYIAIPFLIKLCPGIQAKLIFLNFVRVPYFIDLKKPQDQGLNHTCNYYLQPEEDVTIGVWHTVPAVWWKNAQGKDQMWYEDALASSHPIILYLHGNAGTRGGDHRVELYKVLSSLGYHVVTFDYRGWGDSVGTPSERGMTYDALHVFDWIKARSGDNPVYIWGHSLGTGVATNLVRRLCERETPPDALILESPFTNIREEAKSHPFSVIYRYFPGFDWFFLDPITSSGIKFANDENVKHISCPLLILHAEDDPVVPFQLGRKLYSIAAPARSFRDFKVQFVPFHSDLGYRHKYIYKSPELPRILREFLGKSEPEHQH
Kind of assay: ABHD12 activity by competitive ABPP with FP-TAMRA. The settings on record: read-out: ABHD12 Inhibition (%); for activity at 100 µM / activity: 100 µM compound, competitive ABPP with probe FP-TAMRA (250 nM). The procedure:
as §1
The ABHD12 activity assay is based on competitive activity-based protein profiling (ABPP) with human ABHD12 overexpressing membrane fractions. Briefly, the membrane proteome (1 mg/ml, 20 µl) was incubated at room temperature with 0.5 µl DMSO (vehicle) or inhibitor for 30 min. Subsequently, the samples were treated with the activity-based probe FP-TAMRA (250 nM, final concentration) for 20 min. The reactions were then quenched by 10 µl sample buffer (×4) (final concentrations: 60 mM Tris, pH 6.8, 2% (w/v) SDS, 10% (v/v) glycerol, 5% (v/v) β-mercaptoethanol, 0.01% (v/v) bromophenol blue). The samples were directly loaded and resolved on SDS-PAGE gel (10% acrylamide), which were then scanned using a ChemiDoc MP system (Cy3 settings, BioRad).

On to `O=c1cccc2n1C[C@@H]1CNC[C@H]2C1` [compound 25, Cytisine], for which the percent inhibition of ABHD6 at 100 µM on human ABHD6 was 104%. Moreover, the percent inhibition at 100 µM at human MAGL was determined as 99%; on human ABHD12, 87.9%.
For the molecule `C[C@H]1[C@@H](O)O[C@@H]2O[C@@]3(C)CC[C@H]4[C@H](C)CC[C@@H]1[C@@]24OO3` [compound 26, Dihydroartemisinin], the activity at 100 µM turned out to be 89.2% on human ABHD6, 92.5% at human MAGL and 81.1% on human ABHD12.
Turning to `Cc1cc(O)c2c(c1)C(=O)c1cc(O)cc(O)c1C2=O` [compound 28, Emodin], the values for the activity at 100 µM at human ABHD6, on human MAGL and on human ABHD12 were 87.9%, 63.2% and 67.6%, respectively.
For `O=c1c(O)c(-c2ccc(O)c(O)c2)oc2cc(O)ccc12` [compound 29, Fisetin] the same measures were 82.4%, 76.2% and 51.9%.
For `CC1(C)[C@@H](O)CC[C@]2(C)[C@H]3C(=O)C=C4[C@@H]5C[C@@](C)(C(=O)O)CC[C@]5(C)CC[C@@]4(C)[C@]3(C)CC[C@@H]12` [compound 30, Enoxolone] the same measures were 92%, 95.9% and 89.1%.
For `COc1ccc(-c2coc3cc(O)ccc3c2=O)cc1` [compound 31, Formononetin] the same measures were 94.1%, 103% and 77.5%.
Turning to `COc1cc(/C=C/C(=O)O)ccc1O` [compound 32, Ferulic Acid], the activity at human ABHD6 was found to be 92.4%; at human MAGL, 104%; at human ABHD12, 80.8%.
As for `CC1(C)[C@@H](O[C@H]2O[C@H](C(=O)O)[C@@H](O)[C@H](O)[C@H]2O[C@@H]2O[C@H](C(=O)O)[C@@H](O)[C@H](O)[C@H]2O)CC[C@]2(C)[C@H]3C(=O)C=C4[C@@H]5C[C@@](C)(C(=O)O)CC[C@]5(C)CC[C@@]4(C)[C@]3(C)CC[C@@H]12` [compound 33, Glycyrrhizin], the figures for the activity at 100 µM on human ABHD6, on human MAGL and at human ABHD12 were 92.9%, 99.5% and 69.3%, respectively.
Regarding `CN(C)Cc1c[nH]c2ccccc12` [compound 35, Gramine], the results for the activity at 100 µM at human ABHD6, on human MAGL and on human ABHD12 were 99%, 97.3% and 82.7%, respectively.
For `COc1ccc([C@@H]2CC(=O)c3c(O)cc(O)cc3O2)cc1O` [compound 37, Hesperetin] the same measures were 104%, 90.9% and 83.6%.
Turning to `COc1ccc([C@@H]2CC(=O)c3c(O)cc(O[C@@H]4O[C@H](CO[C@@H]5O[C@@H](C)[C@H](O)[C@@H](O)[C@H]5O)[C@@H](O)[C@H](O)[C@H]4O)cc3O2)cc1O` [compound 38, Hesperidin], the activity at human ABHD6 is 94.3%; at human MAGL it was 91.4%; on human ABHD12, 76.6%.
In the case of `C=CCc1ccc(O)c(-c2ccc(O)c(CC=C)c2)c1` [compound 39, Honokiol], the activity at 100 µM on human ABHD6 was determined as 83.9%; on human MAGL, 111%; at human ABHD12 it was 104%.
Take `C[C@H](CCC(=O)O)[C@H]1CC[C@H]2[C@@H]3C[C@H](O)[C@@H]4C[C@H](O)CC[C@]4(C)[C@H]3CC[C@]12C` [compound 40, Hyodeoxycholic]: the activity on human ABHD6 was 95.4%; on human MAGL, 97%; at human ABHD12, 70.8%.
As for `COc1ccc(-c2oc3c(CC=C(C)C)c(O[C@@H]4O[C@H](CO)[C@@H](O)[C@H](O)[C@H]4O)cc(O)c3c(=O)c2O[C@@H]2O[C@@H](C)[C@H](O)[C@@H](O)[C@H]2O)cc1` [compound 41, Icariin], the activity at 100 µM at human ABHD6 was found to be 84.6%; on human MAGL, 84%; on human ABHD12, 66%.
Turning to `OCc1c[nH]c2ccccc12` [compound 42, Ndole-3-carbinol], the values for the activity at human ABHD6, on human MAGL and on human ABHD12 were 101%, 70.6% and 80.9%, respectively.
